Test results reported in PubChem BioAssay AID248 (DTP/NCI, 2004).
“And” between values parts separate entries of the source, which are not always exact repeats. Equal entries are not always repeated. Inconclusive results and toxic doses are left out.

System: L1210 leukemia ip in BDF1 mice, survival T/C
Experiment: NCI In Vivo Anticancer Drug Screen. Data for tumor model L1210 Leukemia (intraperitoneal) in B6D2F1 (BDF1) mice
Details: endpoint: mean survival time, higher = longer survival
Summary of the method: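 Ratio derived from survival: compound-dosed mice over vehicle-dosed mice, all bearing a transplantable tumor.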

[1] = dose: 100.0 mg/kg/injection, schedule: Q04DX003 (ip), vehicle: saline with Tween-80
[2] = dose: 200.0 mg/kg/injection, schedule: Q04DX003 (ip), vehicle: saline with Tween-80
[3] = dose: 100.0 mg/kg/injection, schedule: Q04DX003 (ip), vehicle: Klucel (hydroxypropylcellulose) (HPC)
[4] = dose: 200.0 mg/kg/injection, schedule: Q04DX003 (ip), vehicle: Klucel (hydroxypropylcellulose) (HPC)
[5] = dose: 400.0 mg/kg/injection, schedule: Q04DX003 (ip), vehicle: Klucel (hydroxypropylcellulose) (HPC)
[6] = dose: 400.0 mg/kg/injection, schedule: Q04DX003 (ip), vehicle: saline with Tween-80
[7] = dose: 100.0 mg/kg/injection, schedule: Q01DX009 (ip), vehicle: saline with Tween-80

With FC(F)(F)c1nccc(=S)[nH]1 the T/C (dose: 50.0 mg/kg/injection, schedule: Q01DX Z (ip), vehicle: methylcellulose (MC)) was 98 % of control and the T/C (dose: 100.0 mg/kg/injection, schedule: Q01DX Z (ip), vehicle: methylcellulose (MC)) was 90 % of control.
With O=C(N/N=C\c1ccc([N+](=O)[O-])cc1)c1ccco1 the T/C (dose: 100.0 mg/kg/injection, schedule: Q01DX001 (ip), vehicle: other) was 93 % of control, the T/C (dose: 200.0 mg/kg/injection, schedule: Q01DX001 (ip), vehicle: other) was 93 % of control and the T/C (dose: 400.0 mg/kg/injection, schedule: Q01DX001 (ip), vehicle: other) was 93 % of control.
With CCOC(=O)NS(=O)(=O)Nc1ccccc1 the T/C (dose: 100.0 mg/kg/injection, schedule: Q01DX001 (ip), vehicle: carboxymethylcellulose (CMC)) was 100 % of control, the T/C (dose: 200.0 mg/kg/injection, schedule: Q01DX001 (ip), vehicle: carboxymethylcellulose (CMC)) was 109 % of control and the T/C (dose: 400.0 mg/kg/injection, schedule: Q01DX001 (ip), vehicle: carboxymethylcellulose (CMC)) was 95 % of control.
With CC1=NCCN1CCN=C(N)CCl the T/C (dose: 12.5 mg/kg/injection, schedule: Q04DX002 (ip), vehicle: saline) was 107 % of control, the T/C (dose: 25.0 mg/kg/injection, schedule: Q01DX009 (ip), vehicle: saline) was 111 % of control and the T/C (dose: 25.0 mg/kg/injection, schedule: Q04DX002 (ip), vehicle: saline) was 91 % of control. The T/C (dose: 50.0 mg/kg/injection, schedule: Q01DX009 (ip), vehicle: saline) was 101 % of control and the T/C (dose: 50.0 mg/kg/injection, schedule: Q04DX002 (ip), vehicle: saline) was 91 % of control.
In the case of NC1=CC(=O)c2ccccc2C1=O, the T/C (dose: 15.6 mg/kg/injection, schedule: Q01DX Z (ip), vehicle: other) is reported as 112 % of control, the T/C (dose: 62.5 mg/kg/injection, schedule: Q01DX Z (ip), vehicle: other) is reported as 106 % of control and the T/C [1] is reported as 103 % of control. For the same molecule, the T/C [2] was 98 % of control.
Nc1cnccc1N1CCN(c2ccc(Cl)c(Cl)c2)CC1 was tested, and the T/C (dose: 100.0 mg/kg/injection, schedule: Q01DX009 (ip), vehicle: gum acacia) was 95 % of control.
Oc1ccc(C2CCc3ccccc32)cc1 (centres undefined) was tested, and the T/C (dose: 100.0 mg/kg/injection, schedule: Q01DX009 (ip), vehicle: Klucel (hydroxypropylcellulose) (HPC)) was 100 % of control, the T/C [3] was 95 % of control and the T/C (dose: 200.0 mg/kg/injection, schedule: Q01DX009 (ip), vehicle: Klucel (hydroxypropylcellulose) (HPC)) was 104 % of control. The T/C [4] was 100 % of control, the T/C (dose: 400.0 mg/kg/injection, schedule: Q01DX009 (ip), vehicle: Klucel (hydroxypropylcellulose) (HPC)) was 95 % of control and the T/C [5] was 93 % of control.
With CCN(CC)C(=O)CS(=O)(=O)c1ccc(C)cc1 the T/C [1] was 96 % of control, the T/C [2] was 110 % of control and the T/C [6] was 98 % of control.
O=C(Nc1ccc(C2=NCCN2)cc1)c1cc(C(=O)Nc2ccc(C3=NCCN3)cc2)ncn1 was tested, and the T/C (dose: 0.47 mg/kg/injection, schedule: Q01DX015 (ip), vehicle: methylcellulose (MC)) was 96 % of control, the T/C (dose: 0.93 mg/kg/injection, schedule: Q01DX015 (ip), vehicle: methylcellulose (MC)) was 108 % of control and the T/C (dose: 0.93 mg/kg/injection, schedule: Q01DX Z (ip), vehicle: carboxymethylcellulose (CMC)) was 94 % of control. The T/C (dose: 1.87 mg/kg/injection, schedule: Q01DX015 (ip), vehicle: methylcellulose (MC)) was 100 % of control and 101 % of control, the T/C (dose: 1.87 mg/kg/injection, schedule: Q01DX Z (ip), vehicle: carboxymethylcellulose (CMC)) was 120 % of control and the T/C (dose: 3.75 mg/kg/injection, schedule: Q01DX015 (ip), vehicle: methylcellulose (MC)) was 102 % of control and 116 % of control. For the same molecule, the T/C (dose: 6.25 mg/kg/injection, schedule: Q01DX001 (ip), vehicle: methylcellulose (MC)) was 112 % of control, the T/C (dose: 7.5 mg/kg/injection, schedule: Q01DX015 (ip), vehicle: methylcellulose (MC)) was 116 % of control and 118 % of control and the T/C (dose: 12.5 mg/kg/injection, schedule: Q01DX001 (ip), vehicle: methylcellulose (MC)) was 108 % of control. For the same molecule, the T/C (dose: 15.0 mg/kg/injection, schedule: Q01DX015 (ip), vehicle: other) was 153 % of control, the T/C (dose: 15.0 mg/kg/injection, schedule: Q01DX Z (ip), vehicle: carboxymethylcellulose (CMC)) was 303 % of control and the T/C (dose: 25.0 mg/kg/injection, schedule: Q01DX001 (ip), vehicle: methylcellulose (MC)) was 104 % of control. For the same molecule, the T/C (dose: 30.0 mg/kg/injection, schedule: Q01DX015 (ip), vehicle: methylcellulose (MC)) was 93 % of control, the T/C (dose: 30.0 mg/kg/injection, schedule: Q01DX015 (ip), vehicle: other) was 241 % of control and the T/C (dose: 30.0 mg/kg/injection, schedule: Q01DX Z (ip), vehicle: carboxymethylcellulose (CMC)) was 224 % of control. The T/C (dose: 36.0 mg/kg/injection, schedule: Q01DX001 (ip), vehicle: carboxymethylcellulose (CMC)) was 118 % of control, the T/C (dose: 36.0 mg/kg/injection, schedule: Q01DX001 (ip), vehicle: other) was 112 % of control and the T/C (dose: 50.0 mg/kg/injection, schedule: Q01DX001 (ip), vehicle: methylcellulose (MC)) was 122 % of control. For the same molecule, the T/C (dose: 53.0 mg/kg/injection, schedule: Q01DX001 (ip), vehicle: carboxymethylcellulose (CMC)) was 118 % of control, the T/C (dose: 53.0 mg/kg/injection, schedule: Q01DX001 (ip), vehicle: other) was 121 % of control and the T/C (dose: 60.0 mg/kg/injection, schedule: Q01DX015 (ip), vehicle: other) was 102 % of control. For the same molecule, the T/C (dose: 60.0 mg/kg/injection, schedule: Q01DX Z (ip), vehicle: carboxymethylcellulose (CMC)) was 154 % of control, the T/C (dose: 79.0 mg/kg/injection, schedule: Q01DX001 (ip), vehicle: carboxymethylcellulose (CMC)) was 124 % of control and the T/C (dose: 120.0 mg/kg/injection, schedule: Q01DX Z (ip), vehicle: carboxymethylcellulose (CMC)) was 121 % of control. For the same molecule, the T/C (dose: 180.0 mg/kg/injection, schedule: Q01DX001 (ip), vehicle: carboxymethylcellulose (CMC)) was 157 % of control, the T/C (dose: 180.0 mg/kg/injection, schedule: Q01DX001 (ip), vehicle: other) was 162 % of control and the T/C (dose: 270.0 mg/kg/injection, schedule: Q01DX001 (ip), vehicle: carboxymethylcellulose (CMC)) was 169 % of control. The T/C (dose: 405.0 mg/kg/injection, schedule: Q01DX001 (ip), vehicle: carboxymethylcellulose (CMC)) was 193 % of control.
In the case of N=C(CCCc1ccccc1)SCc1ccccc1, the T/C (dose: 50.0 mg/kg/injection, schedule: Q01DX009 (ip), vehicle: saline with Tween-80) is reported as 103 % of control, the T/C (dose: 50.0 mg/kg/injection, schedule: Q04DX003 (ip), vehicle: saline with Tween-80) is reported as 94 % of control and the T/C (dose: 100.0 mg/kg/injection, schedule: Q01DX001 (ip), vehicle: saline with Tween-80) is reported as 102 % of control. The T/C [7] was 92 % of control, the T/C [1] was 93 % of control and the T/C (dose: 200.0 mg/kg/injection, schedule: Q01DX001 (ip), vehicle: saline with Tween-80) was 102 % of control.
In the case of CC(=O)NC1CCCC2CCCCC21 (centres undefined), the T/C [7] is reported as 94 % of control and 99 % of control, the T/C [1] is reported as 93 % of control and the T/C (dose: 200.0 mg/kg/injection, schedule: Q01DX009 (ip), vehicle: saline with Tween-80) is reported as 109 % of control and 100 % of control. For the same molecule, the T/C [2] was 94 % of control, the T/C (dose: 400.0 mg/kg/injection, schedule: Q01DX009 (ip), vehicle: saline with Tween-80) was 103 % of control and the T/C [6] was 94 % of control.
For O=C(NC1CCCCC1)c1ccc(Cl)cc1, the T/C (dose: 100.0 mg/kg/injection, schedule: Q01DX001 (ip), vehicle: Klucel (hydroxypropylcellulose) (HPC)) was 105 % of control, the T/C [3] was 94 % of control and the T/C (dose: 200.0 mg/kg/injection, schedule: Q01DX001 (ip), vehicle: Klucel (hydroxypropylcellulose) (HPC)) was 89 % of control. For the same molecule, the T/C [4] was 105 % of control, the T/C (dose: 400.0 mg/kg/injection, schedule: Q01DX001 (ip), vehicle: Klucel (hydroxypropylcellulose) (HPC)) was 105 % of control and the T/C [5] was 102 % of control.
In the case of CC(Cc1ccc2c(c1)OCO2)[N+](=O)[O-] (centres undefined), the T/C (dose: 150.0 mg/kg/injection, schedule: Q04DX003 (ip), vehicle: saline with Tween-80) is reported as 102 % of control and the T/C (dose: 300.0 mg/kg/injection, schedule: Q04DX003 (ip), vehicle: saline with Tween-80) is reported as 100 % of control.
COc1cc(C=Nc2ccc3c(c2)ncn3C)ccc1N(CCCl)CCCl was tested, and the T/C (dose: 100.0 mg/kg/injection, schedule: Q04DX002 (ip), vehicle: Klucel (hydroxypropylcellulose) (HPC)) was 153 % of control.
With CCOC(=O)C1CC=CCC1C(=O)OCC (centres undefined) the T/C (dose: 50.0 mg/kg/injection, schedule: Q01DX009 (ip), vehicle: Klucel (hydroxypropylcellulose) (HPC)) was 105 % of control, the T/C (dose: 75.0 mg/kg/injection, schedule: Q01DX009 (ip), vehicle: Klucel (hydroxypropylcellulose) (HPC)) was 108 % of control and the T/C (dose: 150.0 mg/kg/injection, schedule: Q01DX009 (ip), vehicle: Klucel (hydroxypropylcellulose) (HPC)) was 112 % of control.
